Structures are written as SMILES. pIC50: −log10 of the molar value.

The subject of experiment [1] is HCV replicon I389luc-ubi-neo/NS3-3′/ET in ET (Huh-lucubineo-ET) cells. Nature of the experiment: Replicon assay (Biological Example 2), luciferase readout. Type of experiment: cell-based. The following applies: Hepatitis C virus. A digest of the protocol: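 EC50 values come from Hill fits of % inhibition of replicon-driven firefly luciferase, relative to no-compound wells. Compounds were serially diluted (10 points, 3-fold, 0.1 nM–50 μM final, 0.5% DMSO) onto ET replicon cells and read after 48 h.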
(In general: In antiviral work, replicon cells carry a viral genome segment that copies itself.)

Another experiment deals with T1, HCV polymerase (Hepatitis C virus genotype 1b, UniProt Q9WMX2).
T1 construct: (His)6 (C); made in house; host or cells: XL-1 cells (E. coli, by own knowledge)
The experiment can be described thus: Polymerase assay of Biological Example 1 (IC50 values of Table 3). Type of experiment: biochemical. As to conditions: IC50 values of Table 3, polymerase assay of Biological Example 1; read-out: NS5B-enzyme3.

The mark [2] stands for this setting: ET cells, luciferase activity 48 hours after compound.

Take `O=C(O)c1sc(-c2ccc(Cl)cc2)cc1N1C(=O)CN(S(=O)(=O)c2ccc(N3CCCOCC3)nc2)C[C@H]1C1CCCCC1` [Compound 200, 5-(4-Chloro-phenyl)-3-[(R)-2-cyclohexyl-4-(6-[1,4]oxazepan-4-yl-pyridine-3-sulfonyl)-6-oxo-piperazin-1-yl]-thiophene-2-carboxylic acid]: the values for the pIC50 (in experiment [1] (setting [2]); on HCV polymerase) were at least 7.00 and 9.00, respectively.

In the case of `CN1CCN(C(=O)c2ccc(-c3ccc(S(=O)(=O)N4CC(=O)N(c5cc(-c6ccccc6)sc5C(=O)O)[C@H](C5CCCCC5)C4)cn3)cc2)CC1` [Compound 202, 3-((R)-2-Cyclohexyl-4-{6-[4-(4-methyl-piperazine-1-carbonyl)-phenyl]-pyridine-3-sulfonyl)-6-oxo-piperazin-1-yl)-5-phenyl-thiophene-2-carboxylic acid], the pIC50 in experiment [1] (setting [2]) was at least 7.00; on HCV polymerase, 9.00.

Consider `CN(C)c1ccc(-c2ccc(S(=O)(=O)N3CC(=O)N(c4cc(-c5ccccc5)sc4C(=O)O)[C@H](C4CCCCC4)C3)cn2)cc1` [Compound 203, 3-{(R)-2-Cyclohexyl-4-[6-(4-dimethylamino-phenyl)-pyridine-3-sulfonyl]-6-oxo-piperazin-1-yl}-5-phenyl-thiophene-2-carboxylic acid], for which the figures for the pIC50 (in experiment [1] (setting [2]); at HCV polymerase) were at least 7.00 and 9.00, respectively.

On to `COc1ccncc1-c1ccc(S(=O)(=O)N2CC(=O)N(c3cc(-c4ccccc4)sc3C(=O)O)[C@H](C3CCCCC3)C2)cn1` [Compound 204, 3-[(R)-2-Cyclohexyl-4-(4′-methoxy-[2,3′]bipyridinyl-5-sulfonyl)-6-oxo-piperazin-1-yl]-5-phenyl-thiophene-2-carboxylic acid], for which the pIC50 in experiment [1] (between 100 nM and 5.0 uM) is 5.30 to 7.00; on HCV polymerase, 8.70.

Consider `O=C(O)c1sc(-c2ccccc2)cc1N1C(=O)CN(S(=O)(=O)c2ccc(-c3ccc(F)cc3F)nc2)C[C@H]1C1CCCCC1` [Compound 205, 3-{(R)-2-Cyclohexyl-4-[6-(2,4-difluoro-phenyl)-pyridine-3-sulfonyl]-6-oxo-piperazin-1-yl}-5-phenyl-thiophene-2-carboxylic acid], for which the pIC50 in experiment [1] (between 100 nM and 5.0 uM) was 5.30 to 7.00; on HCV polymerase it was 8.40.

Regarding `O=C(O)c1sc(-c2ccccc2)cc1N1C(=O)CN(S(=O)(=O)c2ccc(-c3cncnc3)nc2)C[C@H]1C1CCCCC1` [Compound 206, 3-[(R)-2-Cyclohexyl-6-oxo-4-(6-pyrimidin-5-yl-pyridine-3-sulfonyl)-piperazin-1-yl]-5-phenyl-thiophene-2-carboxylic acid], the pIC50 in experiment [1] (between 100 nM and 5.0 uM) is 5.30 to 7.00; on HCV polymerase it was 9.00.

With `O=C(O)c1sc(-c2ccccc2)cc1N1C(=O)CN(S(=O)(=O)c2ccc(-c3ccc(CN4CCOCC4)cc3)nc2)C[C@H]1C1CCCCC1` [Compound 208, 3-{(R)-2-Cyclohexyl-4-[6-(4-morpholin-4-ylmethyl-phenyl)-pyridine-3-sulfonyl]-6-oxo-piperazin-1-yl}-5-phenyl-thiophene-2-carboxylic acid], the pIC50 in experiment [1] (setting [2]) is at least 7.00; at HCV polymerase, 8.85.

Consider `O=C(O)c1sc(-c2ccccc2)cc1N1C(=O)CN(S(=O)(=O)c2ccc(-c3ccn[nH]3)nc2)C[C@H]1C1CCCCC1` [Compound 209, 3-{(R)-2-Cyclohexyl-6-oxo-4-[6-(2H-pyrazol-3-yl)-pyridine-3-sulfonyl]-piperazin-1-yl}-5-phenyl-thiophene-2-carboxylic acid], for which the pIC50 was 5.30 to 7.00 in experiment [1] (between 100 nM and 5.0 uM); 9.00 on HCV polymerase.

Regarding `O=C(O)c1ccc(-c2ccc(S(=O)(=O)N3CC(=O)N(c4cc(-c5ccccc5)sc4C(=O)O)[C@H](C4CCCCC4)C3)cn2)s1` [Compound 210, 3-{(R)-4-[6-(5-Carboxy-thiophen-2-yl)-pyridine-3-sulfonyl]-2-cyclohexyl-6-oxo-piperazin-1-yl}-5-phenyl-thiophene-2-carboxylic acid], the pIC50 in experiment [1] (setting [2]) is at most 5.30; at HCV polymerase it was 8.52.

`Cc1occc1-c1ccc(S(=O)(=O)N2CC(=O)N(c3cc(-c4ccccc4)sc3C(=O)O)[C@H](C3CCCCC3)C2)cn1` [Compound 211, 3-{(R)-2-Cyclohexyl-4-[6-(2-methyl-furan-3-yl)-pyridine-3-sulfonyl]-6-oxo-piperazin-1-yl}-5-phenyl-thiophene-2-carboxylic acid]: the pIC50 in experiment [1] (between 100 nM and 5.0 uM) was 5.30 to 7.00; at HCV polymerase, 8.70.

Consider `O=C(O)c1sc(-c2ccccc2)cc1N1C(=O)CN(S(=O)(=O)c2ccc(-c3ccc4c(c3)OCCCO4)nc2)C[C@H]1C1CCCCC1` [Compound 212, 3-{(R)-2-Cyclohexyl-4-[6-(3,4-dihydro-2H-benzo[b][1,4]dioxepin-7-yl)-pyridine-3-sulfonyl]-6-oxo-piperazin-1-yl}-5-phenyl-thiophene-2-carboxylic acid], for which the pIC50 was at least 7.00 in experiment [1] (setting [2]) and 8.70 on HCV polymerase.

Consider `N#Cc1ccccc1-c1ccc(S(=O)(=O)N2CC(=O)N(c3cc(-c4ccccc4)sc3C(=O)O)[C@H](C3CCCCC3)C2)cn1` [Compound 213, 3-{(R)-4-[6-(2-Cyano-phenyl)-pyridine-3-sulfonyl]-2-cyclohexyl-6-oxo-piperazin-1-yl}-5-phenyl-thiophene-2-carboxylic acid], for which the pIC50 is at least 7.00 in experiment [1] (setting [2]) and 9.00 at HCV polymerase.

On to `O=C(O)c1sc(-c2ccccc2)cc1N1C(=O)CN(S(=O)(=O)c2ccc(-c3cccnc3)nc2)C[C@H]1C1CCCCC1` [Compound 214, 3-[(R)-4-([2,3′]Bipyridinyl-5-sulfonyl)-2-cyclohexyl-6-oxo-piperazin-1-yl]-5-phenyl-thiophene-2-carboxylic acid], for which the pIC50 in experiment [1] (between 100 nM and 5.0 uM) was 5.30 to 7.00; at HCV polymerase, 9.00.

With `O=C(O)c1sc(-c2ccccc2)cc1N1C(=O)CN(S(=O)(=O)c2ccc(C3=CCCC3)nc2)C[C@H]1C1CCCCC1` [Compound 215, 3-[(R)-2-Cyclohexyl-4-(6-cyclopent-1-enyl-pyridine-3-sulfonyl)-6-oxo-piperazin-1-yl]-5-phenyl-thiophene-2-carboxylic acid], the pIC50 in experiment [1] (between 100 nM and 5.0 uM) is 5.30 to 7.00; at HCV polymerase, 8.70.

`O=C(O)c1sc(-c2ccccc2)cc1N1C(=O)CN(S(=O)(=O)c2ccc(N3CC4CCC(C3)O4)nc2)C[C@H]1C1CCCCC1` [Compound 216, 3-{(R)-2-Cyclohexyl-4-[6-(8-oxa-3-aza-bicyclo[3.2.1]oct-3-yl)-pyridine-3-sulfonyl]-6-oxo-piperazin-1-yl}-5-phenyl-thiophene-2-carboxylic acid]: the results for the pIC50 (in experiment [1] (setting [2]); on HCV polymerase) were at least 7.00 and 9.00, respectively.

As for `O=C(O)c1sc(-c2ccccc2)cc1N1C(=O)CN(S(=O)(=O)c2ccc(N3CC4CC3CO4)nc2)C[C@H]1C1CCCCC1` (stereo partly drawn) [Compound 217, 3-{(R)-2-Cyclohexyl-4-[6-(2-oxa-5-aza-bicyclo[2.2.1]hept-5-yl)-pyridine-3-sulfonyl]-6-oxo-piperazin-1-yl}-5-phenyl-thiophene-2-carboxylic acid], the pIC50 in experiment [1] (setting [2]) is at least 7.00; at HCV polymerase, 9.00.

Regarding `CCC1(CC)CN(c2ccc(S(=O)(=O)N3CC(=O)N(c4cc(-c5ccccc5)sc4C(=O)O)[C@H](C4CCCCC4)C3)cn2)CCO1` [Compound 218, 3-{(R)-2-Cyclohexyl-4-[6-(2,2-diethyl-morpholin-4-yl)-pyridine-3-sulfonyl]-6-oxo-piperazin-1-yl}-5-phenyl-thiophene-2-carboxylic acid], the pIC50 was at least 7.00 in experiment [1] (setting [2]) and 9.00 at HCV polymerase.

With `CC(C)(C)C#Cc1cc(N2C(=O)CCC2C2CCCCC2)c(C(=O)O)s1` (stereo not shown) [Compound 220, 3-(2-Cyclohexyl-5-oxo-pyrrolidin-1-yl)-5-(3,3-dimethyl-but-1-ynyl)-thiophene-2-carboxylic acid], the pIC50 in experiment [1] (between 100 nM and 5.0 uM) was 5.30 to 7.00; on HCV polymerase it was 7.82.

As for `CC(C)S(=O)(=O)N1CC(=O)N(c2cc(C#CC(C)(C)C)sc2C(=O)O)[C@H](C2CCCCC2)C1` [Compound 221, 3-[(R)-2-Cyclohexyl-6-oxo-4-(propane-2-sulfonyl)-piperazin-1-yl]-5-(3,3-dimethyl-but-1-ynyl)-thiophene-2-carboxylic acid], the pIC50 in experiment [1] (between 100 nM and 5.0 uM) was 5.30 to 7.00; on HCV polymerase it was 7.72.

Turning to `Cn1cc(-c2ccc(S(=O)(=O)N3CC(=O)N(c4cc(-c5ccccc5)sc4C(=O)O)[C@H](C4CCCCC4)C3)cn2)cn1` [Compound 222, 3-{(R)-2-Cyclohexyl-4-[6-(1-methyl-1H-pyrazol-4-yl)-pyridine-3-sulfonyl]-6-oxo-piperazin-1-yl}-5-phenyl-thiophene-2-carboxylic acid], the pIC50 in experiment [1] (setting [2]) is at least 7.00; at HCV polymerase, 8.70.

In the case of `CC(C)(C)C#Cc1cc(N2C(=O)CN(S(=O)(=O)c3ccc(OC(F)(F)F)cc3)C[C@H]2C2CCCCC2)c(C(=O)O)s1` [Compound 223, 3-[(R)-2-Cyclohexyl-6-oxo-4-(4-trifluoromethoxy-benzenesulfonyl)-piperazin-1-yl]-5-(3,3-dimethyl-but-1-ynyl)-thiophene-2-carboxylic acid], the pIC50 in experiment [1] (between 100 nM and 5.0 uM) is 5.30 to 7.00; at HCV polymerase, 8.05.

Turning to `C[C@@H]1COCCN1c1ccc(S(=O)(=O)N2CC(=O)N(c3cc(-c4ccccc4)sc3C(=O)O)[C@H](C3CCCCC3)C2)cn1` [Compound 225, 3-{(R)-2-Cyclohexyl-4-[6-((R)-3-methyl-morpholin-4-yl)-pyridine-3-sulfonyl]-6-oxo-piperazin-1-yl}-5-phenyl-thiophene-2-carboxylic acid], the results for the pIC50 (in experiment [1] (setting [2]); at HCV polymerase) were at least 7.00 and 9.00, respectively.

For `C[C@@H]1COCCN1c1ccc(S(=O)(=O)N2CC(=O)N(c3cc(-c4ccc(Cl)cc4)sc3C(=O)O)[C@H](C3CCCCC3)C2)cn1` [Compound 226, 5-(4-Chloro-phenyl)-3-{(R)-2-cyclohexyl-4-[6-((R)-3-methyl-morpholin-4-yl)-pyridine-3-sulfonyl]-6-oxo-piperazin-1-yl}-thiophene-2-carboxylic acid], the figures for the pIC50 (in experiment [1] (setting [2]); at HCV polymerase) were at least 7.00 and 8.05, respectively.

These data come from patent US9498483B2, “2,3,5-trisubstituted thiophene compounds and uses thereof” (priority 2010, dated 2016).
